ChEMBL document CHEMBL1139353, “Discovery of a new class of potential multifunctional atypical antipsychotic agents targeting dopamine D3 and serotonin 5-HT1A and 5-HT2A receptors: design, synthesis, and effects on behavior” (J Med Chem, 2009)
Activity calls are given as the source filed them. The calls are words filed in the database; no cut-off is given here.

Columns and labels:
Rattus norvegicus = assay: Induction of c-Fos protein expression in rat nucleus accumbens shell at 3 mg/kg, ip after 1 hr by light microscopy; format: functional, organism-based; set-up: dose 3 mg/kg
Mus musculus [1] = conditions: NMRI
Description: Antipsychotic activity in NMRI mouse assessed as reduction in methamphetamine-induced locomotor activity administered 30 mins prior to testing measured for 60 mins

[2] = molecular target: T1, Adrenergic receptor alpha-1 (Rattus norvegicus, UniProt P15823+P23944+P43140); assay: Displacement of [3H]prazosin from adrenergic alpha1 receptor in rat cerebral cortex by liquid scintillation counting; format: tissue-based
T1 sequence (P15823 whole entry): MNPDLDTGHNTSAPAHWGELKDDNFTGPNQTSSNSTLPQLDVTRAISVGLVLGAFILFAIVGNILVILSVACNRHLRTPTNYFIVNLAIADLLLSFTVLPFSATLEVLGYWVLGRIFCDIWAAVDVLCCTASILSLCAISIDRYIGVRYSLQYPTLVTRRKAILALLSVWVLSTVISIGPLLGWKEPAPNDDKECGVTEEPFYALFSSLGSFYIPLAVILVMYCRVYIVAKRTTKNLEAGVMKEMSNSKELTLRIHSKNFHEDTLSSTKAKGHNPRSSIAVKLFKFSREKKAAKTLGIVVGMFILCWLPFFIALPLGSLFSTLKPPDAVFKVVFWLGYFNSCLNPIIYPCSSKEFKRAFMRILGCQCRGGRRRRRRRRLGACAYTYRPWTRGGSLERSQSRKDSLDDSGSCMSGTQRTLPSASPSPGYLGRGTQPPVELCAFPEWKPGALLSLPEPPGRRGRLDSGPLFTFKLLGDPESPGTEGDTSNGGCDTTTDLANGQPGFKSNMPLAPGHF
T1 sequence (P23944 whole entry): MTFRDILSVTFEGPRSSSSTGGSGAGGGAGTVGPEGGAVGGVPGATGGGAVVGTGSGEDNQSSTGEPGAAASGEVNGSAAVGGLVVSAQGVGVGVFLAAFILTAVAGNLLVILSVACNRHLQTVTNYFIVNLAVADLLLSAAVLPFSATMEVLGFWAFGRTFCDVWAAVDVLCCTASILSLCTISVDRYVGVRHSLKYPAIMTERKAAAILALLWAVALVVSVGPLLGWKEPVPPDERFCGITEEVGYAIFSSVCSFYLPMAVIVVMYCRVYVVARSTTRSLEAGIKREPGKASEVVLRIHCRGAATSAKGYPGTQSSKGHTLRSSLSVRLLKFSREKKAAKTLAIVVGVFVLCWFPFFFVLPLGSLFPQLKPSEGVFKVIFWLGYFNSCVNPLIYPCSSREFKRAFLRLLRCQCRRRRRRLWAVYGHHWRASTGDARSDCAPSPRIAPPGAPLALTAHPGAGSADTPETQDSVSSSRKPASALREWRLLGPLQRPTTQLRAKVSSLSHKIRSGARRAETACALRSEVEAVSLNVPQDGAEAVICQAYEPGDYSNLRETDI
T1 sequence (P43140 whole entry): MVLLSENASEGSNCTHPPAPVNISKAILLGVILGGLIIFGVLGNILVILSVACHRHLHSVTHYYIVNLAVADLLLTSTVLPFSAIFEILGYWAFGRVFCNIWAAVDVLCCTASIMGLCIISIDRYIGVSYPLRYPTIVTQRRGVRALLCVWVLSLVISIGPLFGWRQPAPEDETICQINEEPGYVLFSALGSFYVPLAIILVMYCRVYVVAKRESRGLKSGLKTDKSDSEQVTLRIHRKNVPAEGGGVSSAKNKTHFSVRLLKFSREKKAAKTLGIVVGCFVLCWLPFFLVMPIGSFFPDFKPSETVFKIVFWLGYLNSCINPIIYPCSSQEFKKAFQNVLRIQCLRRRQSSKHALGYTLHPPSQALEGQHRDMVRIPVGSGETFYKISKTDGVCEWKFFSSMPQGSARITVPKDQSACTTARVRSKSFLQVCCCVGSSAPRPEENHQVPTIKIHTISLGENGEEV

Mus musculus [3] = conditions: NMRI; remark: listed apart in the source
Description: Antipsychotic activity in NMRI mouse assessed as reduction in phencyclidine-induced locomotor activity administered 30 mins prior to testing measured for 60 mins

Mus musculus [4] = assay: Antipsychotic activity in NMRI mouse assessed as reduction in methamphetamine-induced locomotor activity at 3 mg/kg administered 30 mins prior to testing measured for 60 mins relative to control; format: functional, organism-based; set-up: dose 3 mg/kg
[5] = Displacement of [3H]idazoxan from imidazole I2 receptor in rabbit kidney by filtration technique; set-up: species or system Oryctolagus cuniculus
[6] = Intrinsic activity at 5HT1A receptor in Duncan Hartley guinea pig ileum; format: tissue-based; conditions: Cavia porcellus

Ki [2]: 6 nM
Ki [5]: 138 nM
IC50 [6]: 180 nM
SMILES: Cc1cccc(N2CCN(CCCCNC(=O)c3cc4ccccc4o3)CC2)c1
Activity (Rattus norvegicus): Active
Activity (Mus musculus [1]): Dose-dependent effect
Activity (Mus musculus [3]): Dose-dependent effect
Activity (Mus musculus [4]): Active
